# From patent publication US10035766B2, “Compositions for preventing and/or treating lysosomal storage disorders” (Amicus Therapeutics, Inc., priority 2009, dated 2018)
# Where a name gives a salt, the structure may show the parent alone.
# Assays:
# GCase [1] = molecular target: T1, GCase (Homo sapiens, UniProt P04062); experiment: GCase activity enhancement (EC50, Emax) of Table 2B; assay type: cell-based; details: for GCase activity enhancement compared to reference compound IFG-tartrate: same maximum level as IFG-tartrate at much lower concentration
# T1 sequence (P04062 40-536): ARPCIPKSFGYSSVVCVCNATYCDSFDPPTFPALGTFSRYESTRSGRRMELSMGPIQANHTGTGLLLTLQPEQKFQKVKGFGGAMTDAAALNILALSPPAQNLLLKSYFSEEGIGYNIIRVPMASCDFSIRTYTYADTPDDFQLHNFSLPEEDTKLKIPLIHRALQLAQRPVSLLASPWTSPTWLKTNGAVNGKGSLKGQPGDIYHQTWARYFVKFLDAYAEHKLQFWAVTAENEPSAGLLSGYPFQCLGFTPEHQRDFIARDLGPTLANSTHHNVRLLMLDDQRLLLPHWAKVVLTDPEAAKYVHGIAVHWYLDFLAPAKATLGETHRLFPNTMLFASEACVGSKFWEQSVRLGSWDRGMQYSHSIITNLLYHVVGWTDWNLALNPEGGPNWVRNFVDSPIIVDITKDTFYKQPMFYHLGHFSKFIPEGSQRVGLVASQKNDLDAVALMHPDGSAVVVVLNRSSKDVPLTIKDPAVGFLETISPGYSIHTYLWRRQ
# lysosomal GCase = molecular target: T2, lysosomal GCase (Homo sapiens, UniProt P04062); experiment: In situ lysosomal GCase inhibition and washout in fibroblasts from a normal subject (PFBFDβGlu substrate); assay type: cell-based; details: for in situ washout: after 16-24 hours at IC90, single exponential fit of activity recovery over 8 hours
# T2 construct: fibroblasts established from a normal subject; endogenous in cells; host or cells: fibroblasts established from a normal subject
# T2 sequence (P04062 40-536): T1 sequence (P04062 40-536)
# Description: The effect of the novel compounds of the present invention on lysosomal GCase activity was assayed in situ using fibroblasts established from a normal subject. Cells seeded in 48-well plates were incubated with the indicated concentrations of compound for 16-24 hours. For the dose-response assays, cells were incubated with the in situ substrate 5-(pentafluorobenzoylamino)fluorescein di-β-D-glucopyranoside (PFBFDβGlu) for 1 hour and subsequently lysed to determine the extent of substrate hydrolysis in the presence of compound. […] Inhibition was determined as the ratio of activity in the presence of compound to that in the absence of compound. […] Cells were washed extensively and incubated in drug-free medium to allow net compound efflux from cells. Cells were then tested for lysosomal GCase activity at 2 hour intervals over a total period of 8 hours following compound removal. The increase in activity over time was fitted with a single exponential function to determine the compound's washout time.
# GCase [2] = molecular target: T3, GCase (Mus musculus, UniProt P17439); experiment: GCase enhancement in brain and spleen after oral dosing over 2 weeks; assay type: in vivo, mice; set-up: from tissue; host or cells: brain and spleen of wild-type C57BL/6 mice; details: for GCase enhancement in brain and spleen: mice, p.o.; for GCase increase (fold): 9 doses, 24-hour washout
# T3 sequence (P17439 20-515): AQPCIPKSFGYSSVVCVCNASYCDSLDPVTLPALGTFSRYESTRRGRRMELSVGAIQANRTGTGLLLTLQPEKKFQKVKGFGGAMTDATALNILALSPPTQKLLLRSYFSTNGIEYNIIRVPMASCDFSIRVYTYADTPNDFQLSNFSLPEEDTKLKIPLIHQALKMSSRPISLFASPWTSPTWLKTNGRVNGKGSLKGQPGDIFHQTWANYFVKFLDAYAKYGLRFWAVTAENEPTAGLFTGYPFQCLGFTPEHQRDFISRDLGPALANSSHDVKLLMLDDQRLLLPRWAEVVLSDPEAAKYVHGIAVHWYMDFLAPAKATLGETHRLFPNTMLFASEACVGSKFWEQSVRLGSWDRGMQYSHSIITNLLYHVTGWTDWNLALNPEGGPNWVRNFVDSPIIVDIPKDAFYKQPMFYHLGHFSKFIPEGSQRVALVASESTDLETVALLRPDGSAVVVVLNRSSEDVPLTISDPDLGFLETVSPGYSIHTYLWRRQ
# Description: The ability of orally administered test compounds ((3R,4R,5S)-5-(difluoromethyl)piperidine-3,4-diol, (3R,4R,5S)-5-(1-fluoroethyl)piperidine-3,4-diol, (3R,4R,5S)-5-((R)-1-fluoropropyl)piperidine-3,4-diol hydrochloride, or (3R,4R,5S)-5-benzylpiperidine-3,4-diol) to elevate GCase levels was assessed in mice. For this purpose, 8-week old wild-type male mice (C57BL/6) were administered a single p.o. (gavage) dose of a compound of the present invention (i.e., (3R,4R,5S)-5-(difluoromethyl)piperidine-3,4-diol, (3R,4R,5S)-5-(1-fluoroethyl)piperidine-3,4-diol, (3R,4R,5S)-5-((R)-1-fluoropropyl)piperidine-3,4-diol hydrochloride, or (3R,4R,5S)-5-benzylpiperidine-3,4-diol). The dosing solutions were prepared in water. Compounds were administered over 2 weeks as follows: week 1, Mon-Fri (On), Sat-Sun (Off); week 2, Mon-Thu (On); necropsy on Friday. Thus, a total of 9 doses (dosing solutions prepared fresh every day) were given to each mouse, with a 24-hour washout between the last dose and necropsy.
# Plasma was collected by spinning blood at 2700 g for 10 minutes at 4° C. Liver, spleen, lung, and brain tissues were removed, washed in cold PBS, blotted dry, flash frozen on dry ice, and stored at −80° C. until analysis. GCase levels were measured by homogenizing approximately 50 mg tissue in 500 μL McIlvane (MI) buffer (100 mM sodium citrate, 200 mM sodium phosphate dibasic, 0.25% sodium taurocholate, and 0.1% Triton X-100, pH 5.2) at pH 5.2 for 3-5 seconds on ice with a micro homogenizer. Homogenates were then incubated at room temperature without and with 2.5 mM conduritol-B-epoxide (CBE) for 30 min. Finally, 3.7 mM 4-methylumbeliferryl-β-glucoside (4-MUG) substrate was added and incubated at 37° C. for 60 min. […] Fluorescence was measured on a plate reader for 1 sec/well using 355 nm excitation and 460 nm emission. Total protein was determined in lysates using the MicroBCA kit according to the manufacturer's instructions. A 4-methylumbelliferone (4-MU) standard curve ranging from 1.0 nM to 50 μM was run in parallel for conversion of raw fluorescence data to absolute GCase activity (in the presence and absence of CBE) and expressed as nanomoles of 4-MU released per milligram of protein per hour (nmol/mg protein/hr). GCase levels and protein levels were calculated using Microsoft Excel (Redmond, Wash.) and GraphPad Prism version 4.02.
# [3] = brain, 10 mg/kg FBE p.o., (1) BLQ <[…], (2) BLQ <2.2 nmol/kg
# [4] = spleen, 10 mg/kg FBE p.o., (1) BLQ <6.8 nmol/kg, (2) BLQ <7.9 nmol/kg
# [5] = spleen, 10 mg/kg FBE p.o., in µM
# [6] = spleen, 100 mg/kg FBE p.o., in µM
SMILES,Emax (GCase [1]),GCase activity enhancement compared to reference compound IFG-tartrate (GCase [1]),in situ washout from the lysosomal compartment compared to IFG-tartrate (lysosomal GCase),inhibition of GCase activity (lysosomal GCase),in situ washout (lysosomal GCase),Compound concentration in tissue 2.2 nmol/kg (GCase [2]; [3]),"Compound concentration in tissue 2.2 nmol/kg (GCase [2]; brain, 100 mg/kg FBE p.o.)",GCase enhancement in brain and spleen (GCase [2]),Compound concentration in tissue (GCase [2]; [4]),Compound concentration in GCase assay (GCase [2]; [5]),"Compound concentration in tissue (GCase [2]; spleen, 100 mg/kg FBE p.o.)",Compound concentration in GCase assay (GCase [2]; [6]),"Compound concentration in GCase assay (μM) (GCase [2]; brain, 10 mg/kg FBE p.o.)","GCase increase (fold) (GCase [2]; brain, 10 mg/kg FBE p.o.)","GCase increase (fold) (GCase [2]; brain, 100 mg/kg FBE p.o.)","GCase increase (fold) (GCase [2]; spleen, 10 mg/kg FBE p.o.)","GCase increase (fold) (GCase [2]; spleen, 100 mg/kg FBE p.o.)","Compound concentration in GCase assay (GCase [2]; spleen, 10 mg/kg FBE p.o.)"
"O[C@H]1[C@H](O)CNC[C@@H]1C(F)F [Compound 6, (3R,4R,5S)-5-(Difluoromethyl)piperdine 3,4-diol Hydrochloride]",106 ± 8.7%,concentration-dependent increase in GCase activity,considerably faster than reference compound IFG-tartrate,inhibited GCase activity,2.1 ± 0.30 h,55 nmol/kg,301 nmol/kg,significant GCase enhancement in brain and spleen,100 nmol/kg,0.0003,435 nmol/kg,0.0015,–,–,–,–,–,–
"CC[C@@H](F)[C@H]1CNC[C@@H](O)[C@@H]1O.Cl [(3R,4R,5S)-5-((R)-1-fluoropropyl)-piperidine-3,4-diol hydrochloride]",84 ± 4.1%,concentration-dependent increase in GCase activity,–,inhibited GCase activity,–,BLQ(2),38 nmol/kg,–,21 nmol/kg,0.0001,60 nmol/kg,0.0002,BLQ,0.9 fold,1.1 fold,0.7 fold,0.7 fold,–
"CC(F)[C@H]1CNC[C@@H](O)[C@@H]1O (single isomer, unassigned)",–,concentration-dependent increase in GCase activity,considerably faster than reference compound IFG-tartrate,inhibited GCase activity,–,–,–,significant GCase enhancement in brain and spleen,–,–,–,–,–,1.5 fold,–,–,–,BLQ
"O[C@@H]1[C@@H](Cc2ccccc2)CNC[C@H]1O [(3R,4R,5S)-5-benzyl-piperidine-3,4-diol]",98 ± 4.5%,concentration-dependent increase in GCase activity,considerably faster than reference compound IFG-tartrate,inhibited GCase activity,1.2 ± 0.13 h,–,–,significant GCase enhancement in brain and spleen,–,–,–,–,–,1.2 fold,1.4 fold,1.0 fold,1.2 fold,–
